Measurements: patent US8410153B2, “Naphthalene isoxazoline invertebrate pest control agents” (E.I. du Pont de Nemours and Company, priority 2007, dated 2013)

Tests used:
Type in all cases: in vivo
[1] = tested on: diamondback moth (Plutella xylostella); test: Test A: control of diamondback moth on radish plant, foliar spray; conditions: sprayed at 50 ppm, held 6 days
From the text: For evaluating control of diamondback moth (Plutella xylostella) the test unit consisted of a small open container with a 12-14-day-old radish plant inside. This was pre-infested with about 50 neonate larvae that were dispensed into the test unit via corncob grits using a bazooka inoculator. The larvae moved onto the test plant after being dispensed into the test unit.
(§1) Test compounds were formulated using a solution containing 10% acetone, 90% water and 300 ppm X-77™ Spreader Lo-Foam Formula non-ionic surfactant containing alkylarylpolyoxyethylene, free fatty acids, glycols and isopropanol (Loveland Industries, Inc. Greeley, Colo., USA). The formulated compounds were applied in 1 mL of liquid through a SUJ2 atomizer nozzle with ⅛ JJ custom body (Spraying Systems Co. Wheaton, Ill., USA) positioned 1.27 cm (0.5 inches) above the top of each test unit. All experimental compounds in these tests were sprayed at 50 ppm, and the test was replicated three times. After spraying of the formulated test compound, each test unit was allowed to dry for 1 h and then a black, screened cap was placed on top. The test units were held for 6 days in a growth chamber at 25° C. and 70% relative humidity. Plant feeding damage was then visually assessed based on foliage consumed, and a pest mortality rating was also counted and calculated for each test unit.

[2] = tested on: fall armyworm (Spodoptera frugiperda); test: Test B: control of fall armyworm on corn (maize) plant, foliar spray; conditions: sprayed at 50 ppm
Description: as §1
For evaluating control of fall armyworm (Spodoptera frugiperda) the test unit consisted of a small open container with a 4-5-day-old corn (maize) plant inside. This was pre-infested (using a core sampler) with 10-15 1-day-old larvae on a piece of insect diet. Test compounds were formulated and sprayed at 50 ppm as described for Test A and replicated three times. After spraying, the test units were maintained in a growth chamber and then the control efficacy was rated for each test unit as described for Test A.

[3] = tested on: western flower thrips (Frankliniella occidentalis); test: Test E: control of western flower thrips on Soleil bean plant, contact and/or systemic; conditions: held 6 days
Description: as §1
For evaluating control of the western flower thrips (Frankliniella occidentalis) through contact and/or systemic means, the test unit consisted of a small open container with a 5-7-day-old Soleil Bean plant inside. Test compounds were formulated and sprayed as described for Test A. All experimental compounds in these tests were sprayed at 250 or 50 ppm as noted, and the test was replicated three times. After spraying, the test units were allowed to dry for 1 h, 22-27 adult thrips were added to each unit and then a black, screened cap was placed on top. The test units were held for 6 days at 25° C. and 45-55% relative humidity. A mortality rating was assessed along with a plant damage rating for each test unit.

Measured: levels of control efficacy (20% or less feeding damage or 80% or more mortality)

CC(NC(=O)c1ccc(C2=NOC(c3cc(C(F)(F)F)cc(C(F)(F)F)c3)(C(F)(F)F)C2)c2ccccc12)C(=O)NC(C)C(F)(F)F (stereo not drawn) [Compound 121]
very good to excellent: [1] | [2] | [3]; sprayed at 250 ppm

O=C(CNC(=O)c1ccc(C2=NOC(c3cc(Cl)cc(C(F)(F)F)c3)(C(F)(F)F)C2)c2ccccc12)NCC(F)(F)F (stereo not drawn) [Compound 62]
very good to excellent: [1] | [2] | [3]; sprayed at 50 ppm | [3]; sprayed at 250 ppm

CS(=O)(=O)CCNC(=O)c1ccc(C2=NOC(c3cc(Br)cc(C(F)(F)F)c3)(C(F)(F)F)C2)c2ccccc12 (racemic) [Compound 54]
very good to excellent: [1] | [2] | [3]; sprayed at 50 ppm | [3]; sprayed at 250 ppm

C[S+]([O-])CCNC(=O)c1ccc(C2=NOC(c3cc(Cl)cc(Cl)c3)(C(F)(F)F)C2)c2ccccc12 (stereo not drawn) [Compound 18]
very good to excellent: [1] | [2] | [3]; sprayed at 50 ppm | [3]; sprayed at 250 ppm

CS(=O)(=O)CCNC(=O)c1ccc(C2=NOC(c3cc(Cl)cc(C(F)(F)F)c3)(C(F)(F)F)C2)c2ccccc12 (stereo not drawn) [Compound 66]
very good to excellent: [1] | [2] | [3]; sprayed at 50 ppm | [3]; sprayed at 250 ppm

CC(C)(NC(=O)c1ccc(C2=NOC(c3cc(Cl)cc(Cl)c3)(C(F)(F)F)C2)c2ccccc12)C(=O)NCC(F)(F)F (stereo not drawn) [Compound 4]
very good to excellent: [1] | [2] | [3]; sprayed at 50 ppm | [3]; sprayed at 250 ppm

O=C(CNC(=O)c1ccc(C2=NOC(c3cc(F)cc(C(F)(F)F)c3)(C(F)(F)F)C2)c2ccccc12)NCC(F)(F)F (racemic) [Compound 135]
very good to excellent: [1] | [2] | [3]; sprayed at 250 ppm

CC(CO)NC(=O)c1ccc(C2=NOC(c3cc(C(F)(F)F)cc(C(F)(F)F)c3)(C(F)(F)F)C2)c2ccccc12 (stereo not drawn) [Compound 68]
very good to excellent: [1] | [2]

CNC(=O)CNC(=O)c1ccc(C2=NOC(c3cc(Cl)cc(C(F)(F)F)c3)(C(F)(F)F)C2)c2ccccc12 (stereo not drawn) [Compound 116]
very good to excellent: [1] | [2]
